One experiment concerns MSSA. Kind of experiment: MIC (CLSI broth dilution), agent alone. The format is cell-based, Staphylococcus aureus. As to conditions: agent alone. In short, it runs like this:
(§1)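 S. aureus isolates were tested by CLSI 2005 broth macrodilution in doubling dilutions of cation-adjusted Mueller-Hinton broth. Inoculum was about 5×10^5 CFU/ml, with 24 h incubation in ambient air. MIC was the lowest concentration inhibiting visible growth, with an MSSA and ATCC QC strains as controls.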
Background: Dilution methods test growth across graded concentrations, often in twofold steps.

Another experiment concerns CA-MRSA. Kind of experiment: MIC (CLSI broth dilution), agent alone. The format is cell-based, Staphylococcus aureus. In short, it runs like this: as §1
The subject of another experiment is HA-MRSA. Kind of experiment: MIC (CLSI broth dilution), agent alone. The format is cell-based, Staphylococcus aureus. Put shortly:
as §1

For a further experiment, the system named is VRSA. Kind of experiment: MIC (CLSI broth dilution), agent alone. Type of experiment: cell-based, Staphylococcus aureus. Set-up: unit not given beside the values.
The test system of another experiment is S. pneumoniae. Kind of experiment: Checkerboard assay (FIC index).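 Further: each agent diluted from 0.03 to 4 times its MIC.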 Conditions: antibiotic combined with PEP35. Type of experiment: cell-based, Streptococcus pneumoniae. As to the method: The checkerboard assays were carried out as described by Eliopoulos and Moellering (Chapter 9) in Antibiotic in Laboratory Medicine, Lorian Ed. 1996 as well as Bonapace et al. Diagnostic Microbiology and Infectious Diseases 2002; 44:363-366 and Bonapace et al. Diagnostic Microbiology and Infectious Diseases 2000; 38:43-50. In brief, checkerboard assays were performed in 96 well microtitre trays using an 8-by-8 well configuration. […] 96-well custom designed microtitre plates contained 100 ul/well of cation adjusted Mueller-Hinton broth (eg. for Enterobacteriaceae) with or without lysed horse blood (2-5% V/V) [eg. for S. pneumoniae] and were inoculated to achieve a final concentration of approximately 5×10^5 CFU/ml and incubated in ambient air for 24 hours prior to reading. Colony counts were performed periodically to confirm inocula. Quality control was performed every two weeks using a variety of ATCC QC organisms including; S. pneumoniae 49619, S. aureus 29213, E. faecalis 29212, E. coli 25922 and P. aeruginosa 27853. For all antimicrobials as well as PEP35, CLSI criteria was used.
The fractional inhibitory concentration index (FIC index) was used to interpret synergy, antagonism or additivity/indifference. FIC index=FIC of drug A+FIC of drug B where:
The FIC of drug A and drug B is calculated as follows, FIC drug A=MIC of drug A in combination/MIC of drug A alone and FIC of drug B=MIC of drug B in combination/MIC of drug B alone. Synergy is defined as FIC index ≦0.5, additivity/indifference FIC >0.5-4 and antagonism FIC index >4.
Antimicrobials used included PEP35, cefazolin, ceftriaxone, vancomycin, linezolid, tigecycline and daptomycin versus Gram-positive cocci and PEP35, gentamicin, levofloxacin, piperacillin/tazobactam, meropenem and colistin (Polymyxin E) versus Gram-negative bacilli. These agents were obtained as laboratory grade powders from their respective manufacturers. Stock solutions were prepared and dilutions made as described by the Clinical Laboratory Standards Institute (2005 CLSI).
Organisms included Gram-positive cocci (2 strains of each): Methicillin-susceptible Staphylococcus aureus (MSSA), community-associated (CA) and healthcare-associated (HA) methicillin-resistant Staphylococcus aureus (MRSA), vancomycin-intermediate Staphylococcus aureus (VISA), vancomycin-resistant Staphylococcus aureus (VRSA), methicillin-resistant Staphylococcus epidermidis (MRSE), Streptococcus pyogenes, Streptococcus agalactiae, Streptococcus pneumoniae, Enterococcus faecalis, Enterococcus faecium and vancomycin-resistant enterococcus (VRE). Gram-negative bacilli tested (2 strains of each) included: E. coli, Pseudomonas aeruginosa, Klebsiella pneumoniae, K. oxytoca, Enterobacter cloacae, P. mirabilis and Stenotrophomonas maltophilia. MIC testing, following two subcultures from frozen stock were determined by the CLSI 2005 approved broth microdilution method.

The mark [1] stands for this setting: CA-MRSA 69615 (USA400), agent alone.
Setting [2] is: HA-MRSA 77090 (USA100/800), agent alone.
Setting [3] is: S. pneumoniae-Pen I 72302 (MHB).
[4] abbreviates: S. pneumoniae-Pen I 78663 (MHB).
Where [5] appears, read: S. pneumoniae-Pen R 76065 (MHB).
Setting [6] is: S. pneumoniae-Pen R 78519 (MHB).
The mark [7] stands for this setting: S. pneumoniae-Pen S 70400 (MHB).
[8] abbreviates: S. pneumoniae-Pen S 71263 (MHB).

Several values for one entry are separate records, joined by “and”; a condition that tells them apart may be missing. Equal entries are not always repeated. Where two headings read alike, the source gives them in different places.

Turning to `Cc1nnc(SCC2=C(C(=O)O)N3C(=O)[C@@H](NC(=O)Cn4cnnn4)[C@H]3SC2)s1` [Cefazolin], the MIC in the experiment with MSSA (MSSA 79333) is 1 and 0.5/0.5; in the experiment with MSSA (MSSA 79333, listed as CEFAZOLIN), 0.5/0.5; in the experiment on MSSA (S. aureus control), 0.5/0.5 ug/ml; in the experiment on MSSA (Staphylococcus aureus, MSSA, S. aureus control, read-out: MIC), 0.5 µg/mL; in the experiment on CA-MRSA (setting [1]) it was 64 and 64/64; in the experiment on CA-MRSA (CA-MRSA 69615 (USA400)^a row, antibiotic alone, in µg/mL) it was 64. Also, the MIC with CA-MRSA (CA-MRSA 69615 (USA400)^b row, antibiotic alone, in µg/mL) is 64; with CA-MRSA (CA-MRSA 70857 (USA400), agent alone), 32 and 32/32; in the experiment with CA-MRSA (Staphylococcus aureus, MRSA / USA400), 256 µg/mL; in the experiment with HA-MRSA (HA-MRSA 70798 (USA100/800), agent alone, in µg/mL), 512; in the experiment with HA-MRSA (setting [2]), 128 and 256/256; in the experiment on HA-MRSA (HA-MRSA 77090 (USA100/800), agent alone, in µg/mL) it was 128 and 64. Further, the MIC in the experiment on HA-MRSA (HA-MRSA 77090 (USA100/800)^a row, antibiotic alone, in µg/mL) was 128; in the experiment with HA-MRSA (HA-MRSA 77090 (USA100/800)^b row, antibiotic alone, in µg/mL), 128; in the experiment with HA-MRSA (HA-MRSA 77098 (USA100/800), agent alone), 512/512; in the experiment with HA-MRSA (Staphylococcus aureus, MRSA / USA200, HA-MRSA (CMRSA4/USA200), antibiotic alone, read-out: Cefazolin (MIC)) it was 256 µg/mL; in the experiment with HA-MRSA (Staphylococcus aureus, MRSA / USA500, HA-MRSA (CMRSA5/USA500), antibiotic alone, read-out: Cefazolin (MIC)), 2 µg/mL; with HA-MRSA (Staphylococcus aureus, MRSA / USA600, HA-MRSA (CMRSA1/USA600), antibiotic alone, read-out: Cefazolin (MIC)) it was 128 µg/mL. For the same compound, the MIC with HA-MRSA (Staphylococcus aureus, MRSA, HA-MRSA (CMRSA3/6), antibiotic alone, read-out: Cefazolin (MIC)) is 256 µg/mL; with HA-MRSA (Staphylococcus aureus, MRSA, HA-MRSA (CMRSA6), antibiotic alone, read-out: Cefazolin (MIC)), 256 µg/mL; in the experiment on HA-MRSA (Staphylococcus aureus, MRSA, HA-MRSA (CMRSA8), antibiotic alone, read-out: Cefazolin (MIC)) it was 64 µg/mL; in the experiment on VRSA (VRSA 105), 128/128/128/; in the experiment on VRSA (VRSA 105, in µg/mL), 128 and 256; in the experiment with VRSA (VRSA 106), 256/256. The MIC with VRSA (VRSA 106, in µg/mL) is 256 and 128. Also, the “MICs alone, range” value was 2 to 256 µg/mL in the experiment with CA-MRSA (50 CA-MRSA strains) and 2 to 512 µg/mL in the experiment with HA-MRSA (50 HA-MRSA strains). For the same compound, the “strains resistant to the antibiotic” value in the experiment on CA-MRSA (50 CA-MRSA strains) is recorded as 45 of the 50 strains; with HA-MRSA (50 HA-MRSA strains), 47 of the 50 strains. Moreover, the “Avg ΣFIC (range)” value with S. pneumoniae (setting [3]) was 1.1 (1.0-1.25); with S. pneumoniae (setting [4]) it was 1.1 (1.0-1.25); in the experiment on S. pneumoniae (setting [5]) it was 0.70 (0.53-1.06); with S. pneumoniae (setting [6]), 0.97 (0.75-1.12); in the experiment on S. pneumoniae (setting [7]), 0.68 (0.515-1.06); in the experiment on S. pneumoniae (setting [8]) it was 0.99 (0.62-1.25).

With `CN[C@H](CC(C)C)C(=O)N[C@H]1C(=O)N[C@@H](CC(N)=O)C(=O)N[C@H]2C(=O)N[C@H]3C(=O)N[C@H](C(=O)N[C@H](C(=O)O)c4cc(O)cc(O)c4-c4cc3ccc4O)[C@H](O)c3ccc(c(Cl)c3)Oc3cc2cc(c3O[C@@H]2O[C@H](CO)[C@@H](O)[C@H](O)[C@H]2O[C@H]2C[C@](C)(N)[C@H](O)[C@H](C)O2)Oc2ccc(cc2Cl)[C@H]1O` [Vancomycin], the MIC with MSSA (MSSA 79333) is 1 and 0.5; in the experiment with CA-MRSA (setting [1]) it was 1/1; with HA-MRSA (setting [2]) it was 1/1; with VRSA (VRSA 105) it was 512/512/512; in the experiment on VRSA (VRSA 105, listed as VAN, in µg/mL), 512; in the experiment with VRSA (VRSA 106) it was 512/512/512. The MIC in the experiment on VRSA (VRSA 106, listed as VAN, in µg/mL) stood at 512. In addition, the “Avg ΣFIC (range)” value is 1.26 (1.06-1.5) with S. pneumoniae (setting [3]); 1.1 (1.0-1.25) in the experiment on S. pneumoniae (setting [4]); 0.86 (0.53-1.25) in the experiment with S. pneumoniae (setting [5]); 1.2 (1.015-1.5) in the experiment on S. pneumoniae (setting [6]); 0.91 (0.56-1.25) in the experiment with S. pneumoniae (setting [7]); 1.05 (0.75-1.25) in the experiment on S. pneumoniae (setting [8]).
